{"source": "patent US7053108B2", "about": "“Indoline compounds” (Les Laboratoires Servier, priority 2002, dated 2006)", "format_in_all_cases": "in vivo", "key": {"[1]": {"experiment": "Social interaction test in the rat", "settings": "1 hour before the test, Sprague-Dawley rat, carrier 183 ± 7", "description": "Social Interaction Test in the Rat\nThis test allows evaluation of the potential anxiolytic activity of the compounds. Male rats of the Sprague-Dawley strain (Charles River, Saint-Aubin-les-Elbeuf, France) weighing 240–260 g on arrival are isolated in individual cages for 5 days in dimly lit animal quarters (3–10 lux). The test is carried out on the final day and consists of placing the animals in pairs, matched by weight (±5 g), in a brightly lit enclosure (300 lux) for 10 minutes. The time spent by the animals in interacting with one another (grooming, chasing, . . . ) is measured. The compound or the carrier is administered to the animals 1 hour before the test, each couple receiving the same treatment. The anxiolytic effect of a compound is reflected by an increased duration of interaction compared to that of animals to whom the carrier has been administered."}, "Vogel conflict test": {"experiment": "Vogel conflict test", "settings": "30 minutes before test, 3 minutes, Wistar rat, carrier 77.1 ± 14.7", "description": "The test is carried out in a transparent plastics cage (32×25×30 cm) located in a soundproofed and ventilated enclosure. The cage has a chrome steel floor. The metal tip of the drink-containing bottle enters the cage at a height of 6 cm above the metal floor. The floor and the tip of the bottle are connected by electric cables to an “Anxiometer” apparatus (Columbus Instruments, Ohio, USA), which records the licks of the animal and controls the administration of electric shocks.\nFor the 4 days preceding the test, the rats (male Wistar rats weighing 250–270 g) (3 per cage) have access to drink for only one hour per day. On the day before the test, the animals are isolated in cages, on grills, without food or drink, immediately after their final hour of access to drink. The test takes place on the 5th day. On the day of the test, the animal is given by gavage (p.o.) either the solvent (suspension of distilled water+Tween 80) (control) or the compound, 30 minutes before being placed in the test cage. The session begins as soon as the animal has carried out 20 licks and has received a first electric shock (between the metal tip and metal floor), (constant current, 0.5 sec. duration, 0.3 mA intensity). Subsequently, the animal receives an electric shock each time it carries out 20 licks, for a period of 3 minutes. Animals not having performed the first 20 licks of the session by the end of 5 minutes are withdrawn from the test. The results are the numbers of licks performed by the animal during the 3 minutes of the test."}, "[2]": {"test_system": "extracellular concentrations of dopamine and noradrenaline in the frontal cortex", "experiment": "Measurement of the extracellular concentrations of dopamine and noradrenaline in the frontal cortex of the conscious rat (microdialysis)", "settings": "40.0 mg/kg p.o., 30 minutes post administration, frontal cortex dialysate", "description": "Measurement of the Extracellular Concentrations of Dopamine and Noradrenaline in the Frontal Cortex of the Conscious Rat\nDialysis. The surgery is performed under pentobarbital-induced anaesthesia (60 mg/kg, i.p.). The rats are placed in a Kopf stereotaxic device and a cannula guide (CMA Microdialysis AB, Stockholm, Sweden) is implanted in the frontal cortex at the coordinates: anteroposterior: +2.2, lateral: ±0.6, ventral deviation: −0.2. The rats are placed in separate cages and recover from the anaesthesia over 5 days. […]\nChromatography. Dopamine (DA) and noradrenaline (NA) are simultaneously measured as follows: 20 μl of dialysate sample are diluted with 20 μl of mobile phase (75 mM NaH2PO4, 20 μM EDTA, 1 mM sodium decanesulphonate, 17.5% methanol, 0.01% triethylamine, pH: 5.70) and 33 μl are analysed by HPLC using, for separation, an inversephase column (Hypersil C18, 150×4.6 mm; particle size 5 μm) thermostatically controlled at 43° C. and, for quantification, a coulometric detector (ESA5014, Coulochem II, ESA, Chelmsford, USA). […]\nThe compound of Example 1 (40.0 mg/kg, p.o.) causes a substantial increase in the extracellular concentrations of DA and NA in the dialysates collected from the frontal cortex of conscious rats. The data are expressed as the mean ±S.E.M. The levels of DA and NA are expressed with respect to the mean values before administration of the drug. […]"}, "5-HT2c receptors": {"biological_target": "T1, 5-HT2c receptors (Rattus norvegicus, UniProt P08909)", "T1 construct": "from tissue; host or cells: whole living male Wistar rat (in vivo)", "T1 sequence (P08909 33-460)": "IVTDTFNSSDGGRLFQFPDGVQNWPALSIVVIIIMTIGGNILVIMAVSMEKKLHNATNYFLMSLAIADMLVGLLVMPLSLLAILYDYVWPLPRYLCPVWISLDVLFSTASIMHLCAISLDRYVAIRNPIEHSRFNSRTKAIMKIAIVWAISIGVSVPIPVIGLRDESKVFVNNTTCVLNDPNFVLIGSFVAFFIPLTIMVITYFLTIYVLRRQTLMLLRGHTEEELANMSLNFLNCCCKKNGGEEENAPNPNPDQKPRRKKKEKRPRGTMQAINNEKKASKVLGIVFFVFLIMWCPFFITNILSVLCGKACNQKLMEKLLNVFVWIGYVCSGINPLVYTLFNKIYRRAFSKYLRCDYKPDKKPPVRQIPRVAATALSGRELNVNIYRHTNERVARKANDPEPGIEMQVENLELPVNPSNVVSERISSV", "experiment": "Penile erection test following administration of Ro 60-0175 (1.25 mg/kg, s.c.) in the rat", "settings": "Wistar rat; for % inhibition of penile erections: Ro 60-0175 1.25 mg/kg s.c. 30 min later", "description": "Penile Erection Test Following Administration of Ro 60-0175 (1.25 mg/kg, s.c.) in the Rat\nThis test allows evaluation of the capacity of pharmacological agents to inhibit penile erections caused by administration of a selective 5-HT2c agonist, Ro 60-0175. Inhibition is therefore predictive of antagonist activity with respect to 5-HT2c receptors. Male rats of the Wistar strain (Iffa-Credo, L'Arbresle, France) weighing 120–140 g on the day of the experiment are placed separately in plexiglass observation boxes (7.5×18×30 cm) immediately after the compound or the carrier has been administered. Thirty minutes later, Ro 60-0175 (1.25 mg/kg, s.c.) is administered to the animals and the number of erections occurring during the next 30 minutes is counted."}}, "data": [{"smiles": "O=C(Nc1cccnc1)N1CCc2c1ccc1ccccc21", "note": "[Example 1, N-(3-Pyridyl)-1,2-dihydro-3H-benzo[e]indole-3-carboxamide]", "values": [{"measurement": "Duration of social interactions (s) mean ± s.e.m. (n)", "setting": "[1]; 0.16 mg/kg p.o.", "result": "187 ± 11 (5) s"}, {"measurement": "Duration of social interactions (s) mean ± s.e.m. (n)", "setting": "[1]; 0.63 mg/kg p.o., p < 0.05", "result": "228 ± 11 (5) s"}, {"measurement": "Duration of social interactions (s) mean ± s.e.m. (n)", "setting": "[1]; 2.5 mg/kg p.o., p < 0.05", "result": "242 ± 15 (5) s"}, {"measurement": "Duration of social interactions (s) mean ± s.e.m. (n)", "setting": "[1]; 10.0 mg/kg p.o., p < 0.05", "result": "233 ± 10 (5) s"}, {"measurement": "Punished licks (1 shock/20 licks) Mean ± s.e.m. (n)", "setting": "Vogel conflict test; 2.5 mg/kg p.o.", "result": "92.2 ± 20.7 (5)"}, {"measurement": "Punished licks (1 shock/20 licks) Mean ± s.e.m. (n)", "setting": "Vogel conflict test; 10.0 mg/kg p.o.", "result": "145.2 ± 46.3 (5)"}, {"measurement": "Punished licks (1 shock/20 licks) Mean ± s.e.m. (n)", "setting": "Vogel conflict test; 40.0 mg/kg p.o., p < 0.05", "result": "324.4 ± 70.7 (10)"}, {"measurement": "Extracellular DA level with respect to the mean values before administration (mean ±S.E.M.)", "setting": "[2]; solvent = +3.9±9.8, in % (unit assumed)", "result": "+95.0±12.9"}, {"measurement": "Extracellular NA level with respect to the mean values before administration (mean ±S.E.M.)", "setting": "[2]; solvent = +8.7±11.9, in % (unit assumed)", "result": "+118.2±16.7"}, {"measurement": "% inhibition of penile erections", "setting": "5-HT2c receptors; 0.25 mg/kg p.o.", "result": 12, "unit": "%"}, {"measurement": "% inhibition of penile erections", "setting": "5-HT2c receptors; 0.63 mg/kg p.o.", "result": 16, "unit": "%"}, {"measurement": "% inhibition of penile erections", "setting": "5-HT2c receptors; 1.00 mg/kg p.o.", "result": 50, "unit": "%"}, {"measurement": "% inhibition of penile erections", "setting": "5-HT2c receptors; 2.5 mg/kg p.o.", "result": 88, "unit": "%"}, {"measurement": "% inhibition of penile erections", "setting": "5-HT2c receptors; 10.0 mg/kg p.o.", "result": 100, "unit": "%"}, {"measurement": "ED50", "setting": "5-HT2c receptors; po, inhibition of Ro 60-0175-induced penile erections, p.o., read-out: ID50 (inhibitory dose50)", "result": 1.16, "unit": "mg/kg"}]}]}
